Legend:
Type in all cases: cell-based
[1] = test system: Fusarium oxysporum f. sp. lycopersici FOL 3 race 2; experiment: MIC, antifungal growth inhibition in microtiter plates (PDB); settings: Fo, 22°C, seven days, OD 600 nm, lowest concentration with no growth, given as interval of tested concentrations, three replicates, experiment repeated twice
Experimental: (§1) The following plant pathogenic fungal strains were used: Penicillium expansum EPS26 (Institut de Tecnologia Agroalimentària, Universitat de Girona, Spain) and Fusarium oxysporum f. sp. lycopersici FOL 3 race 2 (ATCC 201829, American Type Culture Collection,Virginia, EEUU). Strains were cultured on potato dextrose agar (PDA) plates (Difco). Conidia from P. expansum and microconidia from F. oxysporum were obtained from 5–7 day-old agar Potato Dextrose (PDA) cultures after growth at 25°C. Inoculum was prepared by scraping spore material from culture surfaces with a cotton swab and resuspending it in distilled water containing 0.5‰ of tween 80. The suspensions were filtered through Miracloth (Merk, Millipore) and the concentration of conidia was determined using a hemacytometer and adjusted to 10^4 conidia mL^-1 for F. oxysporum and to 10^3 conidia mL^-1 for P. expansum.
(§2) Lyophilized peptides were solubilized in sterile Milli-Q water to a final concentration of 1 mM and filter sterilized through a 0.22-μm pore filter. […] For antibacterial activity 20 μL of each dilution were mixed in a microtiter plate well with 20 μL of the corresponding suspension of the bacterial indicator, 160 μL of Trypticase Soy Broth (TSB) (BioMèrieux, France) to a total volume of 200 μL. For antifungal activity 20 μL of each stock solution were mixed in a microtiter plate well with 80 μL of the corresponding suspension of the fungal pathogen and 100 μL of double concentrated Potato Dextrose Broth (PDB) to a total volume of 200 μL containing 0.003% w/v of chloramphenicol to prevent bacterial contamination.
(§3) Three replicates for each combination of strain, compound and concentration were used. Microbial growth was determined by optical density measurement at 600 nm (Bioscreen C, Labsystem, Helsinki, Finland). For antibacterial activity microplates were incubated at 25°C with 20 s shaking before hourly absorbance measurement for 48 h. For antifungal activity microplates were incubated at 22°C with 1 min shaking before absorbance measurement that were done every two hours during seven days. The experiment was repeated twice. The MIC was taken as the lowest compound concentration with no growth at the end of the experiment.

[2] = test system: Penicillium expansum EPS26; experiment: as above; settings: Pe, 22°C, seven days, OD 600 nm, lowest concentration with no growth, given as interval of tested concentrations, three replicates, experiment repeated twice
Experimental: as §1, §2, §3

[3] = test system: Xanthomonas arboricola pv. pruni CFBP5563; experiment: MIC, growth inhibition in microtiter plates (TSB); settings: Xap, 25°C, 48 h, OD 600 nm, lowest concentration with no growth, given as interval of tested concentrations, three replicates, experiment repeated twice
Description: (§4) The following plant pathogenic bacterial strains were used: Erwinia amylovora PMV6076 (Institut National de la Recherche Agronomique, Angers, France), Pseudomonas syringae pv. syringae EPS94 (Institut de Tecnologia Agroalimentària, Universitat de Girona, Spain), Xanthomonas axonopodis pv. vesicatoria 2133–2, Pseudomonas syringae pv. actinidiae Psa3700.1.1, Xanthomonas fragariae Xf349-9A (Instituto Valenciano de Investigaciones Agrarias, Valencia, Spain), and Xanthomonas arboricola pv. pruni CFBP5563 (Collection Française de Bactéries associées aux Plantes, Angers, France). All bacteria except for X. fragariae were stored in Luria Bertani (LB) broth supplemented with glycerol (20%) and maintained at -80°C. For X. fragariae, Medium B [46] was used instead of LB. E. amylovora, X. arboricola pv. pruni, P. syringae pv. syringae and P. syringae pv. actinidiae were scrapped from the agar media after growing for 24 h at 25°C, and X. axonopodis pv. vesicatoria and X. fragariae after growing for 48 h at 25°C. The cell material was suspended in sterile water to obtain a suspension of 10^8 CFU mL^-1.
as §2, §3

[4] = test system: Pseudomonas syringae pv. syringae EPS94; experiment: MIC, growth inhibition in microtiter plates (TSB); settings: Pss, 25°C, 48 h, OD 600 nm, lowest concentration with no growth, given as interval of tested concentrations, three replicates, experiment repeated twice
Description: as §4, §2, §3

[5] = test system: Xanthomonas fragariae Xf349-9A; experiment: MIC, growth inhibition in microtiter plates (TSB); settings: Xf, 25°C, 48 h, OD 600 nm, lowest concentration with no growth, given as interval of tested concentrations, three replicates, experiment repeated twice
Description: as §4, §2, §3

[6] = test system: Xanthomonas axonopodis pv. vesicatoria 2133–2; experiment: MIC, growth inhibition in microtiter plates (TSB); settings: Xav, 25°C, 48 h, OD 600 nm, lowest concentration with no growth, given as interval of tested concentrations, three replicates, experiment repeated twice
Description: as §4, §2, §3

[7] = test system: Erwinia amylovora PMV6076; experiment: MIC, growth inhibition in microtiter plates (TSB); settings: Ea, 25°C, 48 h, OD 600 nm, lowest concentration with no growth, given as interval of tested concentrations, three replicates, experiment repeated twice
Description: as §4, §2, §3

[8] = test system: Pseudomonas syringae pv. actinidiae Psa3700.1.1; experiment: MIC, growth inhibition in microtiter plates (TSB); settings: Psa, 25°C, 48 h, OD 600 nm, lowest concentration with no growth, given as interval of tested concentrations, three replicates, experiment repeated twice
Description: as §4, §2, §3

| SMILES | MIC [1] [µM] | MIC [2] [µM] | MIC [3] [µM] | MIC [4] [µM] | MIC [5] [µM] | MIC [6] [µM] | MIC [7] [µM] | MIC [8] [µM] |
| --- | --- | --- | --- | --- | --- | --- | --- | --- |
| CCCCCC(=O)N[C@@H](CCCCN)C(=O)N[C@@H](CCCCN)C(=O)N[C@@H](CC(C)C)C(=O)N[C@@H](Cc1ccccc1)C(=O)N[C@@H](CCCCN)C(=O)N[C@@H](CCCCN)C(=O)N[C@H](C(=O)N[C@@H](CC(C)C)C(=O)N[C@@H](CCCCN)C(=O)N[C@@H](Cc1ccc(O)cc1)C(=O)N[C@@H](CC(C)C)C(N)=O)[C@@H](C)CC [BP367, C5H11CO-KKLFKKILKYL-NH2] | 1.6 to 3.1 | 12.5 to 25 | 3.1 to 6.2 | 3.1 to 6.2 | 3.1 to 6.2 | 3.1 to 6.2 | 3.1 to 6.2 | 3.1 to 6.2 |
| CCCCCC(=O)NCCCC[C@H](NC(=O)[C@@H](NC(=O)[C@H](CCCCN)NC(=O)[C@H](CCCCN)NC(=O)[C@H](Cc1ccccc1)NC(=O)[C@H](CC(C)C)NC(=O)[C@H](CCCCN)NC(=O)[C@H](CCCCN)NC(C)=O)[C@@H](C)CC)C(=O)N[C@@H](CCCCN)C(=O)N[C@@H](Cc1ccc(O)cc1)C(=O)N[C@@H](CC(C)C)C(N)=O [BP375, Ac-KKLFKKIK(COC5H11)KYL-NH2] | 0.4 to 0.8 | 3.1 to 6.2 | 3.1 to 6.2 | 3.1 to 6.2 | 3.1 to 6.2 | 6.2 to 12.5 | 3.1 to 6.2 | 3.1 to 6.2 |
| CCCCCCCCCCCC(=O)NCCCC[C@H](NC(=O)[C@@H](NC(=O)[C@H](CCCCN)NC(=O)[C@H](CCCCN)NC(=O)[C@H](Cc1ccccc1)NC(=O)[C@H](CC(C)C)NC(=O)[C@H](CCCCN)NC(=O)[C@H](CCCCN)NC(C)=O)[C@@H](C)CC)C(=O)N[C@@H](CCCCN)C(=O)N[C@@H](Cc1ccc(O)cc1)C(=O)N[C@@H](CC(C)C)C(N)=O [BP399, Ac-KKLFKKIK(COC11H23)KYL-NH2] | 6.2 to 12.5 | 12.5 to 25 | 1.6 to 3.1 | 3.1 to 6.2 | 3.1 to 6.2 | 0.8 to 1.6 | >25 | 3.1 to 6.2 |
| CCCCCC(=O)NCCCC[C@H](NC(=O)[C@H](CCCCN)NC(=O)[C@H](CC(C)C)NC(=O)[C@@H](NC(=O)[C@H](CCCCN)NC(=O)[C@H](CCCCN)NC(=O)[C@H](Cc1ccccc1)NC(=O)[C@H](CC(C)C)NC(=O)[C@H](CCCCN)NC(=O)[C@H](CCCCN)NC(C)=O)[C@@H](C)CC)C(=O)N[C@@H](CC(C)C)C(N)=O [BP377, Ac-KKLFKKILKK(COC5H11)L-NH2] | 0.8 to 1.6 | 3.1 to 6.2 | 3.1 to 6.2 | 3.1 to 6.2 | 3.1 to 6.2 | 6.2 to 12.5 | 3.1 to 6.2 | 3.1 to 6.2 |
| CCCCCCCCCCCC(=O)NCCCC[C@H](NC(=O)[C@H](Cc1ccccc1)NC(=O)[C@H](CC(C)C)NC(=O)[C@H](CCCCN)NC(=O)[C@H](CCCCN)NC(C)=O)C(=O)N[C@@H](CCCCN)C(=O)N[C@H](C(=O)N[C@@H](CC(C)C)C(=O)N[C@@H](CCCCN)C(=O)N[C@@H](Cc1ccc(O)cc1)C(=O)N[C@@H](CC(C)C)C(N)=O)[C@@H](C)CC [BP396, Ac-KKLFK(COC11H23)KILKYL-NH2] | 6.2 to 12.5 | 12.5 to 25 | 1.6 to 3.1 | >25 | 1.6 to 3.1 | 3.1 to 6.2 | >25 | >25 |
| CCCC(=O)NCCCC[C@H](NC(=O)[C@H](Cc1ccccc1)NC(=O)[C@H](CC(C)C)NC(=O)[C@H](CCCCN)NC(=O)[C@H](CCCCN)NC(C)=O)C(=O)N[C@@H](CCCCN)C(=O)N[C@H](C(=O)N[C@@H](CC(C)C)C(=O)N[C@@H](CCCCN)C(=O)N[C@@H](Cc1ccc(O)cc1)C(=O)N[C@@H](CC(C)C)C(N)=O)[C@@H](C)CC [BP384, Ac-KKLFK(COC3H7)KILKYL-NH2] | 1.6 to 3.1 | 12.5 to 25 | 3.1 to 6.2 | 6.2 to 12.5 | 1.6 to 3.1 | 1.6 to 3.1 | 3.1 to 6.2 | 6.2 to 12.5 |
| CCCCCCCCCCCC(=O)NCCCC[C@H](NC(=O)[C@H](CCCCN)NC(=O)[C@H](CC(C)C)NC(=O)[C@@H](NC(=O)[C@H](CCCCN)NC(=O)[C@H](CCCCN)NC(=O)[C@H](Cc1ccccc1)NC(=O)[C@H](CC(C)C)NC(=O)[C@H](CCCCN)NC(=O)[C@H](CCCCN)NC(C)=O)[C@@H](C)CC)C(=O)N[C@@H](CC(C)C)C(N)=O [BP401, Ac-KKLFKKILKK(COC11H23)L-NH2] | 6.2 to 12.5 | 12.5 to 25 | 1.6 to 3.1 | 6.2 to 12.5 | 3.1 to 6.2 | 0.8 to 1.6 | >25 | 6.2 to 12.5 |
| CCCCCC(=O)NCCCC[C@H](NC(=O)[C@H](CCCCN)NC(=O)[C@H](Cc1ccccc1)NC(=O)[C@H](CC(C)C)NC(=O)[C@H](CCCCN)NC(=O)[C@H](CCCCN)NC(C)=O)C(=O)N[C@H](C(=O)N[C@@H](CC(C)C)C(=O)N[C@@H](CCCCN)C(=O)N[C@@H](Cc1ccc(O)cc1)C(=O)N[C@@H](CC(C)C)C(N)=O)[C@@H](C)CC [BP373, Ac-KKLFKK(COC5H11)ILKYL-NH2] | 0.4 to 0.8 | 3.1 to 6.2 | 3.1 to 6.2 | 6.2 to 12.5 | 3.1 to 6.2 | 6.2 to 12.5 | 3.1 to 6.2 | 3.1 to 6.2 |
| CCCCCCCCCCCC(=O)NCCCC[C@H](NC(=O)[C@H](Cc1ccc(O)cc1)NC(=O)[C@H](CCCCN)NC(=O)[C@H](CC(C)C)NC(=O)[C@@H](NC(=O)[C@H](CCCCN)NC(=O)[C@H](CCCCN)NC(=O)[C@H](Cc1ccccc1)NC(=O)[C@H](CC(C)C)NC(=O)[C@H](CCCCN)NC(=O)[C@H](CCCCN)NC(C)=O)[C@@H](C)CC)C(N)=O [BP402, Ac-KKLFKKILKYK(COC11H23)-NH2] | 6.2 to 12.5 | 12.5 to 25 | 1.6 to 3.1 | 3.1 to 6.2 | 3.1 to 6.2 | 1.6 to 3.1 | 3.1 to 6.2 | 3.1 to 6.2 |
| CCCC(=O)NCCCC[C@H](NC(=O)[C@H](CC(C)C)NC(=O)[C@H](CCCCN)NC(=O)[C@H](CCCCN)NC(C)=O)C(=O)N[C@@H](CCCCN)C(=O)N[C@@H](CCCCN)C(=O)N[C@H](C(=O)N[C@@H](CC(C)C)C(=O)N[C@@H](CCCCN)C(=O)N[C@@H](Cc1ccc(O)cc1)C(=O)N[C@@H](CC(C)C)C(N)=O)[C@@H](C)CC [BP383, Ac-KKLK(COC3H7)KKILKYL-NH2] | 0.8 to 1.6 | 6.2 to 12.5 | 6.2 to 12.5 | 6.2 to 12.5 | 3.1 to 6.2 | 3.1 to 6.2 | 6.2 to 12.5 | 6.2 to 12.5 |

From paper PMC6063448, “Antimicrobial activity of linear lipopeptides derived from BP100 towards plant pathogens” (PLoS ONE, 2018)
